Square brackets hold non-standard residues; d marks the D form. Ends that are not written are not given here. Peptide text beside a SMILES is read from it.
Assays:
[1] = tested on: Imiquimod-induced psoriasis in mice; experiment: Imiquimod-induced psoriasis, ear histopathology; type: in vivo, mouse; conditions: 10 mg/kg PO daily
Experimental: Female BALB/cAnNCrl mice (Charles River, age 8 to 10 weeks at study start) have been assigned to the following groups (treatment schedule):
In this experiment, two positive controls have been utilized. Firstly, Prednisolone at 10 mg/kg (vehicle: 1% Hydroxyethylcellulose, 0.25% Polysorbate 80, and 0.05% Antifoam in purified water) has been dosed daily and orally (group “Prednisolone”). Secondly, Dexamethasone has been administered at 0.5 mg/kg (vehicle: sterile 0.9% NaCl) on days 1, 4 and 7 via intravenous route.
On day 8, animals have been sacrificed and the tissue (ear) has been fixed in 10% neutral buffered formalin. For histopathology hematoxylin-and-eosin-stained sections (cross cut) have been prepared and microscopic evaluation on the collected tissues from all animals has been performed. Methods and end-points for histopathology were similarly described in the van der Fits (2009) paper in that inflammation, epidermal hyperplasia, epidermal hyperkeratosis (rather than parakeratosis) were observed and recorded for severity grade, whereby the respective methodology from Van der Fits et al. (The Journal of Immunology 2009, 182, P. 5836-5845) is hereby incorporated by reference. Histopathology grading scores were excluded for either skin or ear in animals with secondary inflammatory processes (full thickness epidermal ulcers). Scores were averaged by group and standard deviation and statistical significance were calculated. […] Formalin-fixed, paraffin embedded skin from the dorsal surface of the mouse (BALB/c) was stained with hematoxylin and eosin (H&E) stain and assessed microscopically. An important difference from the above reference and to describe in more detail the observations of the present study: Hyperkeratosis can be defined specifically as orthokeratotic (no retained nuclei) or parakeratotic (retained nuclei). Either can occur normally in various anatomical locations and depending on species; however, both conditions are well defined in particular disease states. The van der Fits paper describes their Imiquimod (IMQ)-induced psoriasis model as causing parakeratotic hyperkeratosis similar to what is seen in the human condition, and that was a defined end-point for this study. However, the Danilenko et al. (Veterinary Pathology 2008 45:563) has shown that many rodent psoriasis models have orthokeratotic hyperkeratosis. […] The more general term ‘hyperkeratosis’ was used for grading end-points and describe in the text what type was seen (primarily orthokeratotic).
Microscopic Histopathology end-points were graded as such: […]

[2] = Stability (half-life) in human serum, UPLC-MS; conditions: human serum (10 and 50% in PBS; FIG. 5: 50%), 0.1 mM peptide
Experimental: The experiment was performed as described by Tugyi et al. (Proc Natl Acad Sci USA, 2005, 413-418). The remaining intact peptide was quantified by UPLC-MS.

Hela cells = experiment: Internalization of transporter constructs, 24 hours, fluorescence of cell extracts; type: cell-based; conditions: FIG. 6; Y in position 2
Experimental: The transporter sequences analyzed correspond to SEQ ID NOs: 52-94 plus SEQ ID NOs: 45, 47, 46, 43 and 99 (FIG. 6A) and SEQ ID NOs: 100-147 (FIG. 6B). […] Hela cells were incubated 24 hours in 96 well plate with […] of the respective transporters. The cells were then washed twice with an acidic buffer (0.2M Glycin, 0.15M NaCl, pH 3.0) and twice with PBS. Cells were broken by the addition of RIPA lysis buffer. The relative amount of internalized peptide was then determined by reading the fluorescence intensity (Fusion Alpha plate reader; PerkinElmer) of each extract followed by background subtraction.
Hela cells were incubated 24 hours in 96 well plate with […] of the r3-L-TAT-derived transporters. The cells were then washed twice with an acidic buffer (0.2M Glycin, 0.15M NaCl, pH 3.0) and twice with PBS. Cells were broken by the addition of RIPA lysis buffer. The relative amount of internalized peptide was then determined by reading the fluorescence intensity (Fusion Alpha plate reader; PerkinElmer) of each extract followed by background subtraction

For `C[C@]12C=CC(=O)C=C1CC[C@@H]1[C@@H]2[C@@H](O)C[C@@]2(C)[C@H]1CC[C@]2(O)C(=O)CO` [Prednisolone, reference compound], the “epidermal hyperkeratosis of the ear (average grades)” value [1] was “minimally decreased average grades”, the “inflammation of the ear (average grade) vs vehicle-IMQ” value [1] was “decreased inflammation of the ear” and the “inflammation of the ear (average grade) vs vehicle-IMQ” value ([1]; listed as prednisolone) was “significant differences from the vehicle control group”.
With `CC(C)C[C@H](NC(=O)[C@H](CC(N)=O)NC(=O)[C@H](CC(C)C)NC(=O)[C@@H](NC(=O)[C@@H](NC(=O)[C@@H]1CCCN1C(=O)[C@H](CCCNC(=N)N)NC(=O)[C@H](CCCCN)NC(=O)[C@@H]1CCCN1C(=O)[C@H](CCCNC(=N)N)NC(=O)[C@@H]1CCCN1C(=O)[C@@H]1CCCN1C(=O)[C@H](CCCNC(=N)N)NC(=O)[C@H](CCCNC(=N)N)NC(=O)[C@H](CCCNC(=N)N)NC(=O)[C@H](CCC(N)=O)NC(=O)[C@H](CCCNC(=N)N)NC(=O)[C@H](CCCNC(=N)N)NC(=O)[C@H](CCCCN)NC(=O)[C@H](CCCCN)NC(=O)[C@H](CCCNC(=N)N)NC(=O)CN)[C@@H](C)O)[C@@H](C)O)C(=O)N[C@@H](Cc1ccccc1)C(=O)N1CCC[C@H]1C(=O)N[C@@H](CCC(N)=O)C(=O)N[C@H](C(=O)N1CCC[C@H]1C(=O)N[C@@H](CCCNC(=N)N)C(=O)N[C@@H](CO)C(=O)N[C@@H](CCC(N)=O)C(=O)N[C@@H](CC(=O)O)C(N)=O)C(C)C` [SEQ ID NO: 196, reference compound] (H-GRKKRRQRRRPPRPKRPTTLNLFPQVPRSQD-NH2) the “time until totally degraded into amino acids residues” value [2] was no more than 6 h.
In the case of “rYKRrQRRr ([dR]YKR[dR]QRR[dR]) [SEQ ID NO: 142]”, the transporter activity (Hela cells) is reported as “highest transporter activity”.
